These are literature values, as cited in patent EP0721734A1, “PESTICIDE COMPOSITION” (NIPPON SODA CO., LTD., priority 1993, dated 1995).

For `CCCC(Cn1cncn1)c1ccc(Cl)cc1Cl` (stereo not drawn) [Penconasole], the water solubility is reported as 70 ppm.
`CCN(Cc1ccc(Cl)nc1)C(=C[N+](=O)[O-])NC` [2-methylamino-2-[N-ethyl-(2-chloro-5-pyridyl)methylamino]-nitoroethylene]: the water solubility result is “up to 600 g/l”.
`CC(=NC#N)N(C)Cc1ccc(Cl)nc1` [active substance-1, N^1-[(2-chloro-5-pyridyl)methyl]-N^2-cyano-N^1-methylacetamidine]: the water solubility is 3,700 ppm.
`CCc1cccc(C)c1N(C(=O)CCl)C(C)COC` (stereo not drawn) [Metolachlor]: the water solubility is given as 530 ppm.
For the compound `CCO[PH](=O)[O-].CCO[PH](=O)[O-].CCO[PH](=O)[O-].[Al+3]` [Phosethyl-Alminium], the water solubility was 120 g/L.
Regarding `CCSCc1ccccc1OC(=O)NC` [Ethiophencalb], the water solubility is given as 1,900 ppm.
